Tests used:
ATP synthesis = test: Cellular ATP synthesis in the presence of compounds; type: cell-based; conditions: compounds exposed to cells (FIG. 6)
Experimental: The following four compounds were exposed to cells, and ATP synthesis measured: […]

[1] = target: T1, oligomycin sensitivity conferring protein (OSCP) component of the mitochondrial F1F0-ATPase (Homo sapiens, UniProt P48047); conditions: cited from earlier work
T1 sequence (P48047 24-213): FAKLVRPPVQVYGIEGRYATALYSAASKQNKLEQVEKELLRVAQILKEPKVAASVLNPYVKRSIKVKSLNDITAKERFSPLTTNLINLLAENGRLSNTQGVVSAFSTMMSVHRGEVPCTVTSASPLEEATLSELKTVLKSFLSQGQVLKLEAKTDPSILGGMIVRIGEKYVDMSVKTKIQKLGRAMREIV

animal models of lupus = conditions: in vivo; cited from earlier work
[2] = tested on: mitochondrial F1F0-ATPase; conditions: cited from earlier work

Compound | inhibition of ATP synthesis (ATP synthesis) | binding to OSCP [1] | activity in animal models of lupus (animal models of lupus) | inhibition of the F1F0-ATPase [2]
CN1C(=O)C(c2ccccc2)NC(c2ccc(O)cc2)c2cc(Cl)ccc21 (stereo not shown) | did inhibit ATP synthesis |  |  | 
CN1C(=O)C(Cc2ccc3ccccc3c2)N=C(c2ccc(O)cc2)c2cc(Cl)ccc21 (stereo not shown) [Bz-423] |  | binds to the oligomycin sensitivity conferring protein (OSCP) | potent activity in animal models of lupus | inhibits the enzyme

From US8791104B2, “1,4-benzodiazepine-2,5-diones with therapeutic properties” (The Regents of the University of Michigan, priority 2005, dated 2014)
